{
  "source": "patent US20250064782A1",
  "about": "“Methods of Treating Substance Use Disorders Using 5-MeO-DMT” (Journey Colab Corp., priority 2021, published 2025)",
  "origin": "cited, not measured here",
  "key": {"IL-6": {"tested_on": "IL-6", "settings": "Uthaug et al. 2020"}, "[1]": {"settings": "rodents; Shen et al. 2011, Ermakova et al. 2022"}},
  "data": [
    {"smiles": "COc1ccc2[nH]cc(CCN(C)C)c2c1", "note": "[5-MeO-DMT, 5-methoxy-N,N-dimethyltryptamine]", "values": [
      {"measurement": "IL-6 levels post-administration", "setting": "IL-6", "value": "significantly decrease IL-6 levels"},
      {"measurement": "pharmacokinetics of 5-MeO-DMT", "setting": "[1]", "value": "Non-linear pharmacokinetics"}
    ]}
  ]
}
